Assay results reported in US9504729B2, “Antiangiogenic small molecules and methods of use” (The United States of America, as represented by the …, priority 2009, dated 2016).

What was measured:
FGFR1 = FGFR1 (Homo sapiens, UniProt P11362); assay: SelectScreen kinase activity profiling, FGFR1; type: biochemical; parameters: concentration or dose not given beside the values; details: for Mean % Inhibition: mean of two independent trials
Excerpt: (§1) To characterize the RTK inhibitory activity of the antiangiogenic SMs described herein, 36 compounds were chosen and screened using Invitrogen's SelectScreen® kinase activity profiling service (described on-line at tools.invitrogen.com/content.cfm?pageid=10413#selection). VEGFR1 and FGFR2 RTK inhibitory activities were studied. […] Overall, a small minority of the SMs tested had any substantial kinase inhibitory activity. This observation supports a mechanism of antiangiogenic action other than RTK inhibition for most of the SMs described herein.

KDR(VEGFR2) = KDR(VEGFR2) (Homo sapiens, UniProt P35968); assay: SelectScreen kinase activity profiling, KDR(VEGFR2); type: biochemical; parameters: % Inhibition / Mean % Inhibition: concentration or dose not given beside the values; details: KDR(VEGFR2); for Mean % Inhibition: mean of two independent trials
Sequence of KDR(VEGFR2) (P35968 20-1356): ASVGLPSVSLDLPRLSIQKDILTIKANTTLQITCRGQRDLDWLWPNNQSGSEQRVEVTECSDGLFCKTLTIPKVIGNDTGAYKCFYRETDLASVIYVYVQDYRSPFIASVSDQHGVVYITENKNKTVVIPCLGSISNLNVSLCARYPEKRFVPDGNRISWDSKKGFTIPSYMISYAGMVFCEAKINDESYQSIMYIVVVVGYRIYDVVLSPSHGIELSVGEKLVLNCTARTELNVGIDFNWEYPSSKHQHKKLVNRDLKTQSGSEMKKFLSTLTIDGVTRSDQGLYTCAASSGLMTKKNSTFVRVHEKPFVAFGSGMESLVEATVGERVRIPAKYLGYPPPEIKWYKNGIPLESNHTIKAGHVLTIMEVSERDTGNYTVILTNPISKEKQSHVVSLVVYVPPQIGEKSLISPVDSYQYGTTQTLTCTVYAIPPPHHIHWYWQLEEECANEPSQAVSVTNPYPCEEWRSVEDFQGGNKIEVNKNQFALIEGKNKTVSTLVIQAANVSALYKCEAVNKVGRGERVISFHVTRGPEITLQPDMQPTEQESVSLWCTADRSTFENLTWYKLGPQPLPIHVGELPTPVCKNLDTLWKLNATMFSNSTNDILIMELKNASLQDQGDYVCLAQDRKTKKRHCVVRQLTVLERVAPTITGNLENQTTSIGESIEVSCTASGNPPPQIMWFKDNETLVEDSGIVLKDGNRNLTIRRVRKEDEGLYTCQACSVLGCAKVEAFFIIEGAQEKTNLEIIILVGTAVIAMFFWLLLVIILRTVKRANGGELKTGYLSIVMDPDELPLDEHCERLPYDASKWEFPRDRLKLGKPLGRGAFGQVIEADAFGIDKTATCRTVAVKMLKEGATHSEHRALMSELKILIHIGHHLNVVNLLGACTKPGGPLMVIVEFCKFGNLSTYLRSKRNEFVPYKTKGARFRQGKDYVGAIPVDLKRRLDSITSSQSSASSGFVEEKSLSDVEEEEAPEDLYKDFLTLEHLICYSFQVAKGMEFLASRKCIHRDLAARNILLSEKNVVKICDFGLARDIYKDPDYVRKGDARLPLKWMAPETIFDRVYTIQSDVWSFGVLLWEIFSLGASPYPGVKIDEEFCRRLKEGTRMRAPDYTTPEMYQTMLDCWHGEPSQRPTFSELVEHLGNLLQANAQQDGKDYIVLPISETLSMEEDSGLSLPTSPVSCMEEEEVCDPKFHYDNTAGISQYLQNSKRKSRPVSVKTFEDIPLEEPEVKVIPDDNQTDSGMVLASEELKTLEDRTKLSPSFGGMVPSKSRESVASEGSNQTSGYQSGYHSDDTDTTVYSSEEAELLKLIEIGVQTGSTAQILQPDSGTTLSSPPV
Excerpt: as §1

[1] = first of two independent trials
[2] = second of two independent trials

Sequence of FGFR1 (P11362 398-822 limits assumed): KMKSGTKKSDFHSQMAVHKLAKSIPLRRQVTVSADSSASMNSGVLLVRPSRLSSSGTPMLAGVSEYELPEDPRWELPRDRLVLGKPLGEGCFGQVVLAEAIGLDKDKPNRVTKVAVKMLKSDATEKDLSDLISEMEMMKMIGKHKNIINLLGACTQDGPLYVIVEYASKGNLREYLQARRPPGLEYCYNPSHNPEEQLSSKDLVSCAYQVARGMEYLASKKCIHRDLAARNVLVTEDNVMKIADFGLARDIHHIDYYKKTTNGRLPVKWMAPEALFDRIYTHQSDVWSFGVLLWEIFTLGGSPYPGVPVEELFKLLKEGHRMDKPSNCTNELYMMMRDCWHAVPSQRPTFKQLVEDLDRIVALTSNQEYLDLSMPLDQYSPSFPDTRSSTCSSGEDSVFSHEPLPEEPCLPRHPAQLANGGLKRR

Compound	% Inhibition (FGFR1; [1]) [%]	Mean % Inhibition (FGFR1) [%]	% Inhibition (FGFR1; [2]) [%]	% Inhibition (KDR(VEGFR2); [1]) [%]	Mean % Inhibition (KDR(VEGFR2)) [%]	% Inhibition (KDR(VEGFR2); [2]) [%]
COc1ccc(CC2C(=O)NC(C)C(=O)N(C)C3Cc4ccc(cc4)Oc4cc(ccc4O)CC(C(=O)NC(C)C(=O)NC(C)C(=O)N2C)N(C)C3=O)cc1 (stereo not drawn) [compound 259969]	3	3	3	0	5	9
CCC(=O)OCN1C(=O)C=CC1=O [compound 19630]	2	0	−2	90	90	91
COc1cc2cc(c1Cl)N(C)C(=O)CC(OC(=O)C(C)C)C1(C)OC1C(C)C1CC(O)(NC(=O)O1)C(OC)/C=C/C=C(\C)C2 (stereo not drawn) [compound 292222]	2	3	5	8	7	7
O=C1C(=Cc2ccccc2)C(NC2CCCCC2)c2ccccc21 (stereo not drawn) [compound 150117]	2	5	7	28	26	24
CC1CCN(CC[S-])CC1.O.O.[Cl][Pt+] [compound 292596]	4	4	4	9	14	18
